The source of these data is PubChem BioAssay (NCI).

Several values for one entry are separate records, joined by “and”; a condition that tells them apart may be missing. Equal values may be shown once.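 Interpolation was linear, between the two tested concentrations surrounding the appropriate level; five concentrations were tested over 48 hours in 96-well plates. At the GI50, growth is halved. TGI is the concentration that stops growth completely.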 A value given as a limit tells only on which side of the number the result lay.

The test system of this test is MDA-MB-468 breast. As to the kind of experiment: DTP human tumour cell line panel, 48 h.
Consider `O=C(O)c1ccc2c3c(ncnc13)-c1ccccc1C2=O`, for which the GI50 – broadly, the concentration at which growth is held to half of that of the control – is above 81.9 µM and the concentration for total growth inhibition (TGI) (as a rule, the concentration at which net growth stops) is above 100 µM.
With `Cn1c(/C=C(\C#N)c2cccc(C(F)(F)F)c2)nc2c(N3CCOCC3)nc(Cl)nc21`, the GI50 is 0.432 µM and the concentration for total growth inhibition (TGI) was found to be 1.63 µM.
As to `Nc1nc2ccc3[nH]ncc3c2c2c1CCCC2`, the GI50 is 1.46 µM and the total growth inhibition concentration (TGI) turned out to be 2.92 µM.
Turning to `COc1ccc2c3c(c4ccccc4cc13)C(=O)N(CCN(C)CCN)C2=O`, the GI50 is 0.289 µM and the TGI was 1.16 µM.
As for `O=C(O)c1ccc([S-])cc1.[Au+].c1ccc(CN2[CH-]N(Cc3ccccc3)C(c3ccccc3)=C2c2ccccc2)cc1`, the 50% growth inhibitory concentration (GI50) is 0.188 µM and the TGI was found to be 0.873 µM.
The corresponding values for `Oc1ccc2ccccc2c1C1NN=C(c2ccccc2)S1` (stereo unspecified) are 0.536 µM and 3.94 µM.
Consider `C[n+]1c2ccccc2c(Nc2ccc(NS(=O)(=O)CCCCN=C(N)N)cc2)c2ccc(N)cc21`, for which the GI50 was 0.989 µM and the concentration for total growth inhibition (TGI) worked out at 26.1 µM.
Take `COc1cc(F)cc([C@@H](CO)NC(=O)[C@@H](C)N2Cc3ccc(-c4nc(NC5CCOCC5)ncc4Cl)cc3C2=O)c1`: the GI50 is 1.82 µM and the TGI was determined as 17 µM.
`O=C1NC(=O)C(c2ccc(Cl)cc2)=C1Nc1ccc(Cl)c(C(=O)O)c1`: the GI50 is above 25 µM and the TGI is above 25 µM.
In the case of `COc1cc2c(cc1OC)-c1ccc3cc4c(cc3c1N(CCN(C)C)C2)OCO4`, the GI50 is 0.21 µM and the TGI is 0.762 µM.
`COc1ccc(SC2c3ccc(C)cc3Oc3nc(N)c(C#N)c(N)c32)cc1` (stereo unspecified): the GI50 is 1.79 µM and the TGI worked out at 3.6 µM.
On to `Cc1cccc(Cl)c1NC(=O)c1cnc(Nc2cc(N3CCOCC3)cc(N3CCOCC3)c2)s1`, for which the GI50 was 0.326 µM and the TGI turned out to be 2.77 µM.
As to `c1ccc(Nn2c(CCCCCCCCc3nnc(COc4ccccc4)n3Nc3ccccc3)nnc2COc2ccccc2)cc1`, the GI50 was 12.8 µM and 61.6 µM; the TGI was above 300 µM.
With `Cc1cc(Nc2ccc(F)cc2)nc(N2CCN(c3ccnc4cc(Cl)ccc34)CC2)n1`, the GI50 was 2.72 µM and the TGI is above 100 µM.
Consider `CCCCOC(=O)c1ccc(NC(=O)CCl)cc1`, for which the GI50 is 1.78 µM and the total growth inhibition concentration (TGI) worked out at 4.08 µM.
`COc1cc(C2c3cc4c(cc3OC3(OC)COC(=O)C23)OCO4)cc(OC)c1OC` (stereo unspecified): the GI50 is 0.616 µM and the TGI is 88.6 µM.
For the compound `COc1ccc(-c2cn(-c3cccc(C(=O)/C=C/c4ccc(O)c(OC)c4)c3)c(=O)[nH]2)cc1`, the GI50 was 5.46 µM and the TGI was above 100 µM.
Consider `COc1ccc(/C(=N\NC(N)=S)c2ccc(Cl)cc2)cc1OC`, for which the GI50 was 1.91 µM and the TGI turned out to be 7.99 µM.
Consider `CCCOC(=O)N[C@H]1CCc2cc(OC)c(OC)c(OC)c2-c2ccc(SC)c(=O)cc21`, for which the GI50 was below 0.01 µM and the total growth inhibition concentration (TGI) was 13.5 µM.
The corresponding values for `CN1C(=O)C(=Cc2cn(Cc3ccccc3)c3ccccc23)C(=O)N(C)C1=O` are 0.0639 µM and 0.158 µM.
`c1cncc(-c2nc3ccccc3s2)c1`: the GI50 is above 100 µM and the TGI was above 100 µM.
Regarding `CCO/C=N/C1=C(C#N)C(c2ccc(Cl)cc2)c2sc3c(C)cccc3c2O1` (stereo unspecified), the GI50 was 0.386 µM and the concentration for total growth inhibition (TGI) turned out to be 14.5 µM.
Regarding `Cc1ccc(C(=O)/C(=C\c2ccc([N+](=O)[O-])cc2)S(=O)Cc2ccc(F)cc2)cc1` (stereo unspecified), the GI50 is 1.85 µM and the TGI turned out to be 3.69 µM.
For `CCCC(=O)NC(c1cccnc1)c1cc(C(C)(C)C)c2cccnc2c1O` (stereo unspecified), the GI50 is 2.31 µM and the TGI worked out at 8.98 µM.
Consider `O=[N+]([O-])c1ccc2nc(/C=C(\O)c3ccccc3)c(/C=C(\O)c3ccccc3)nc2c1`, for which the GI50 is 4 µM and the total growth inhibition concentration (TGI) worked out at 61.7 µM.
On to `O=C(NCCN1CCC(O)CC1)c1cc2c(o1)C(=O)c1ccccc1C2=O`, for which the 50% growth inhibitory concentration (GI50) is 0.202 µM and the total growth inhibition concentration (TGI) came to 0.559 µM.
`COc1ccc2c(c1)c1nc3cc(C)c(C)cc3nc1n2CCN(C)C`: the GI50 is 0.761 µM and the concentration for total growth inhibition (TGI) was 2.45 µM.
Take `COc1ccc(C2=Nc3c/c(=C\c4c(O)[nH]c5ccc(Cl)cc45)ccc3=N2)cc1`: the GI50 is 1.48 µM and the TGI came to 3.07 µM.
Consider `O=CC(Br)C(Br)c1ccccc1` (stereo unspecified), for which the GI50 was 1.48 µM and the total growth inhibition concentration (TGI) was determined as 3.65 µM.
The corresponding values for `CCN(CC)CCCC(C)Nc1c2ccc(Cl)cc2nc2cc(OC)c(OC)cc12` (stereo unspecified) are 1.3 µM and 2.83 µM.
On to `CN1CCC(C(=O)Nc2n[nH]c3nc(-c4ccc(O)cc4)c(Br)cc23)CC1`, for which the GI50 was 0.486 µM and 0.779 µM; the total growth inhibition concentration (TGI) is 1.41 µM and 2.83 µM.
With `COc1ccc2c(c1)CCc1[nH]nc(-c3cc(OC)c(OC)c(OC)c3)c1-2`, the 50% growth inhibitory concentration (GI50) is below 0.01 µM and the total growth inhibition concentration (TGI) is below 0.01 µM.
For `CSc1n(Cc2ccc3ccccc3c2)c(C)c[n+]1Cc1ccc2ccccc2c1`, the 50% growth inhibitory concentration (GI50) is 0.211 µM and the TGI was found to be 0.672 µM.
On the same counts, the results for `CN[C@@H]1C[C@H]2O[C@@](C)([C@@H]1OC)n1c3ccccc3c3c4c(c5c6ccccc6n2c5c31)C(=O)N[C@H]4O` are 0.0176 µM and 0.105 µM.
Consider `COc1ccc([I+]c2ccccc2)cc1`, for which the GI50 was 0.253 µM and the TGI was above 36.6 µM.
On to `COc1ccc(-c2nn(-c3cccc(Cl)c3)cc2-c2c(C#N)c(=O)n3[nH]c(-c4ccc(C)cc4)nc3c2C#N)cc1`, for which the GI50 was 1.05 µM and the TGI came to 2.88 µM.
Regarding `N#Cc1ccc(C2C3=C(CCCC3=O)OC3=C2C(=O)c2ccccc2C3=O)cc1` (stereo unspecified), the GI50 was 0.309 µM and the TGI was 0.867 µM.
Turning to `CC1(C)N=C(N)N=C(N)N1c1ccc(CCc2ccc(Cl)cc2S(=O)(=O)F)c(Cl)c1`, the GI50 was 3.59 µM and the TGI was 24.2 µM.
The corresponding values for `Cc1cc([N+](=O)[O-])ccc1NS(=O)(=O)c1cc(Cl)ccc1Cl` are 1.66 µM and 7.61 µM.
Regarding `COc1cc(-c2csc(NC(=O)Nc3cc(C(F)(F)F)cc(C(F)(F)F)c3)n2)cc(OC)c1OC`, the GI50 is 1.33 µM and the total growth inhibition concentration (TGI) was determined as 9.28 µM.
Take `CCOc1ccc2nc(-c3cccc(OCC(=O)NC(C)C)c3)nc(Nc3ccc(-c4cn[nH]c4)cc3)c2c1`: the GI50 was 2.31 µM and the total growth inhibition concentration (TGI) was 14.9 µM.
Turning to `Cn1cc(-c2nc(-c3c[nH]c4ccncc34)cs2)c2cc(F)ccc21`, the GI50 was 1.4 µM and the TGI is 2.89 µM.
As to `CC(C)(C)NCCC(O)c1cc2c(Cl)cc(Cl)cc2c2cc(C(F)(F)F)ccc12` (stereo unspecified), the GI50 is 1.59 µM and the total growth inhibition concentration (TGI) is 3.06 µM.
